Test: Fluorescence (chromophoric) properties of 2H-indazole-3-carbaldehyde
Assay type: physicochemical
Conditions: FIG. 9D

fluorescence wavelength: about 500 nm | increase in fluorescence as compared to unmodified PAF (compared to unmodified PAF): 100 fold
Compound: O=Cc1[nH]nc2ccccc12 [2H-indazole-3-carbaldehyde]

From patent publication US20250059229A1, “Compositions and Methods for Selective Labeling of Secondary Amines” (Emory University, priority 2021, published 2025)
